Columns and labels:
Type in all cases: functional
LOX IMVI = assay: Anticancer activity against Homo sapiens (human) LOXIMVI cells after 48 hr by SRB assay
SF-539 = assay: Growth inhibition of Homo sapiens (human) SF539 cells at 10 uM after 48 hr by SRB assay; settings: SF-539, 48 h, read-out: GI
Staphylococcus aureus = assay: Antimicrobial activity against Staphylococcus aureus ATCC6538P assessed as diameter of growth inhibition zone at 1 mg/ml after 24 hr by agar cup diffusion method; settings: read-out: IZ
786-0 = assay: Growth inhibition of Homo sapiens (human) 786-0 cells at 10 uM after 48 hr by SRB assay; settings: 786-0, 48 h, read-out: GI
MCF7 = assay: Anticancer activity against Homo sapiens (human) MCF7 cells after 48 hr by SRB assay; settings: MCF7, 48 h
ACHN = assay: Growth inhibition of Homo sapiens (human) ACHN cells at 10 uM after 48 hr by SRB assay; settings: read-out: GI
NCI-H322M = assay: Growth inhibition of Homo sapiens (human) NCI-H322M cells at 10 uM after 48 hr by SRB assay; settings: read-out: GI
DU-145 = assay: Growth inhibition of Homo sapiens (human) DU145 cells at 10 uM after 48 hr by SRB assay; settings: DU-145, 48 h, read-out: GI
SNB-75 = assay: Anticancer activity against Homo sapiens (human) SNB75 cells after 48 hr by SRB assay; settings: SNB-75, 48 h
HT-29 = assay: Anticancer activity against Homo sapiens (human) HT-29 cells after 48 hr by SRB assay; settings: HT-29, 48 h
HOP-62 = assay: Growth inhibition of Homo sapiens (human) HOP62 cells at 10 uM after 48 hr by SRB assay; settings: HOP-62, 48 h, read-out: GI
IGROV-1 = assay: Anticancer activity against Homo sapiens (human) IGROV1 cells after 48 hr by SRB assay; settings: IGROV-1, 48 h
CCRF-CEM = assay: Growth inhibition of Homo sapiens (human) CCRF-CEM cells at 10 uM after 48 hr by SRB assay; settings: read-out: GI
OVCAR-4 = assay: Anticancer activity against Homo sapiens (human) OVCAR4 cells after 48 hr by SRB assay; settings: OVCAR-4, 48 h
OVCAR-8 = assay: Growth inhibition of Homo sapiens (human) OVCAR8 cells at 10 uM after 48 hr by SRB assay; settings: OVCAR-8, 48 h, read-out: GI
K562 = assay: Growth inhibition of Homo sapiens (human) K562 cells at 10 uM after 48 hr by SRB assay; settings: K562, 48 h, read-out: GI
HCT-15 = assay: Anticancer activity against Homo sapiens (human) HCT15 cells after 48 hr by SRB assay; settings: HCT-15, 48 h
CAKI-1 = assay: Growth inhibition of Homo sapiens (human) CAKI-1 cells at 10 uM after 48 hr by SRB assay; settings: CAKI-1, 48 h, read-out: GI
MDA-MB-435 = assay: Growth inhibition of Homo sapiens (human) MDA-MB-435 cells at 10 uM after 48 hr by SRB assay; settings: MDA-MB-435, 48 h, read-out: GI
T47D = assay: Anticancer activity against Homo sapiens (human) T47D cells after 48 hr by SRB assay
[1] = read-out: LC50 (the source's name)

Structure (SMILES): Cc1c(C(N)=O)sc2nc(C)n(/N=c3\scc(-c4ccccc4)n3Cc3ccccc3)c(=O)c12
- GI50 (LOX IMVI): 3.54 µM
- TGI (LOX IMVI): > 100 µM
- CC50 (LOX IMVI; [1]): > 100 µM
- inhibition of growth at 10 µM (SF-539): 77.8%
- zone of inhibition at 1000 µg/mL (Staphylococcus aureus): 10 mm
- inhibition of growth at 10 µM (786-0): 49.3%
- GI50 (MCF7): 2.92 µM
- TGI (MCF7): > 100 µM
- CC50 (MCF7; [1]): > 100 µM
- inhibition of growth at 10 µM (ACHN): 92.7%
- inhibition of growth at 10 µM (NCI-H322M): 64.6%
- inhibition of growth at 10 µM (DU-145): 57.9%
- GI50 (SNB-75): 2.8 µM
- TGI (SNB-75): > 100 µM
- CC50 (SNB-75; [1]): > 100 µM
- GI50 (HT-29): 3.04 µM
- TGI (HT-29): > 100 µM
- CC50 (HT-29; [1]): > 100 µM
- inhibition of growth at 10 µM (HOP-62): 75.8%
- GI50 (IGROV-1): 1.43 µM
- TGI (IGROV-1): 6.31 µM
- CC50 (IGROV-1; [1]): > 100 µM
- inhibition of growth at 10 µM (CCRF-CEM): 112%
- GI50 (OVCAR-4): 2.5 µM
- TGI (OVCAR-4): > 100 µM
- CC50 (OVCAR-4; [1]): > 100 µM
- inhibition of growth at 10 µM (OVCAR-8): 85.3%
- inhibition of growth at 10 µM (K562): 91.6%
- GI50 (HCT-15): 2.64 µM
- TGI (HCT-15): > 100 µM
- CC50 (HCT-15; [1]): > 100 µM
- inhibition of growth at 10 µM (CAKI-1): 141%
- inhibition of growth at 10 µM (MDA-MB-435): 87.8%
- GI50 (T47D): 3.25 µM
- TGI (T47D): > 100 µM
- CC50 (T47D; [1]): > 100 µM
